Experimental data as given in PMC8788354 (Journal of Enzyme Inhibition and Medicinal Chemistry, 2022).
Read-outs that look alike come from different tables or passages of the source. Numbered stars: 1 amine (or outer) side, 2 acyl side, 3 side chain; on linkers, the order of the positions; unused ones are H or OH. Bridge positions count the residues as written; N and C are the ends. Square brackets hold non-standard residues; d marks the D form. Peptide text beside a SMILES is read from it. I, II: the chains in the order shown. Actinocin(9to1) = Cc1c2oc3c(C)ccc(C(=O)[*:1])c3nc-2c(C(=O)[*:2])c(N)c1=O; NMeV = CN[C@H](C(=O)O)C(C)C; Sar = CNCC(=O)O

Assays:
in vitro = conditions: human
[1] = tested on: SKBR-3 (human breast cancer cell line); test: cells; assay type: cell-based; conditions: for IC50: SRB assay, 72 h exposure, read-out: Anticancer activity IC50 (nM) ± SD, SKBR-3
[2] = tested on: SKOV-3 (ovarian cancer cell line); test: cells; assay type: cell-based, human; conditions: SRB assay, 72 h exposure, read-out: Anticancer activity IC50 (nM) ± SD, SKOV-3
[3] = tested on: PC-3 (human prostate cancer cell line); test: cells; assay type: cell-based; conditions: SRB assay, 72 h exposure, read-out: Anticancer activity IC50 (nM) ± SD, PC-3
[4] = tested on: U-87MG cells (glioblastoma cell line); test: cells; assay type: cell-based, human; conditions: SRB assay, 72 h exposure, read-out: Anticancer activity IC50 (nM) ± SD, U-87
[5] = Toxicity IC50 (nM) ± SD, HDF, healthy cell line HDF, SRB assay, 72 h exposure

Structure (SMILES)	IC50 (in vitro; [5])	IC50 ([1]; Homo sapiens, SK-BR-3, 72 h)	IC50 ([2]; Homo sapiens, SK-OV-3)	IC50 ([3]; Homo sapiens)	IC50 ([4]; Homo sapiens, U-87 MG)	IC50 ([1]; Homo sapiens, SK-BR-3)	IC50 [1]	IC50 [2]	IC50 [3]	IC50 [4]	Selectivity index (SI), SKBR-3 ([1]; SI = IC50 HDF/IC50 SKBR-3)	IC50 (in vitro)
COc1cc2c(c(OC)c1OC)-c1ccc(=O)c(OCc3cn(Cc4ccc([N+](=O)[O-])cc4)nn3)cc1[C@@H](NC(C)=O)CC2 [Compound 5c]	3.12 ± 0.41 nM	2.18 ± 0.02 nM	2.94 ± 0.71 nM	2.09 ± 0.33 nM	2.04 ± 0.08 nM							
Cc1c2oc3c(C)ccc(C(=O)N[C@@H]4C(=O)N[C@H](C(C)C)C(=O)N5CCC[C@H]5C(=O)N(C)CC(=O)N(C)[C@@H](C(C)C)C(=O)O[C@@H]4C)c3nc-2c(C(=O)N[C@@H]2C(=O)N[C@H](C(C)C)C(=O)N3CCC[C@H]3C(=O)N(C)CC(=O)N(C)[C@@H](C(C)C)C(=O)O[C@@H]2C)c(N)c1=O [ActD, actinomycin D, reference compound] (I: T[dV]P[Sar][NMeV] / II: T[dV]P[Sar][NMeV]; ester I:1-I:C, II:1-II:C; linker I:N-II:N via Actinocin(9to1))					1610 ± 90 nM	1140 ± 60 nM						
COc1cc2c(c(OC)c1OC)-c1ccc(=O)c(OCc3cn([C@@H]4O[C@H](COC(C)=O)[C@@H](OC(C)=O)[C@H](OC(C)=O)[C@H]4NC(C)=O)nn3)cc1[C@@H](NC(C)=O)CC2 [Compound 5d]	7.99 ± 0.04 nM	6.29 ± 0.25 nM	6.03 ± 0.19 nM	6.39 ± 0.08 nM	6.11 ± 0.26 nM							
C=Cc1ccc(COc2cc3c(ccc2=O)-c2c(cc(OC)c(OC)c2OC)CC[C@@H]3NC(C)=O)cc1 [Compound 3j]	5.38 ± 0.42 nM	4.19 ± 0.62 nM	4.55 ± 0.07 nM	4.59 ± 0.03 nM	4.55 ± 0.06 nM							
C=CCOc1ccc2c(cc1=O)[C@@H](NC(C)=O)CCc1cc(OC)c(OC)c(OC)c1-2 [Compound 4d]	2.39 ± 0.17 nM	1.73 ± 0.11 nM	1.73 ± 0.07 nM	1.71 ± 0.03 nM	1.78 ± 0.03 nM							
COc1cc2c(c(OC)c1OC)-c1ccc(=O)c(O)cc1[C@@H](NC(C)=O)CC2 [Compound 2, colchiceine, reference compound]							1.04 ± 0.07 nM	1.88 ± 0.02 nM	1.37 ± 0.02 nM	1.26 ± 0.04 nM		
CCOC(=O)COc1cc2c(ccc1=O)-c1c(cc(OC)c(OC)c1OC)CC[C@@H]2NC(C)=O [Compound 3g]	2.72 ± 0.03 nM	1.31 ± 0.08 nM	1.37 ± 0.01 nM	1.62 ± 0.29 nM	1.41 ± 0.03 nM							
COc1cc2c(c(OC)c1OC)-c1ccc(=O)c(OC/C=C/c3ccccc3)cc1[C@@H](NC(C)=O)CC2 [Compound 3c]	5.24 ± 0.26 nM	3.09 ± 0.02 nM	3.74 ± 0.18 nM	3.11 ± 0.91 nM	3.38 ± 0.05 nM							
COc1cc2c(c(OC)c1OC)-c1ccc(=O)c(OCc3ccc(I)cc3)cc1[C@@H](NC(C)=O)CC2 [Compound 3b]	3.94 ± 0.27 nM	2.55 ± 0.12 nM	2.13 ± 0.4 nM	2.94 ± 0.08 nM	2.47 ± 0.91 nM							
CO[C@@]12[C@H](COC(N)=O)C3=C(C(=O)C(C)=C(N)C3=O)N1C[C@@H]1N[C@@H]12 [MitC, mitomycin C, reference compound]					650 ± 40 nM	670 ± 10 nM						
COc1cc2c(c(OC)c1OC)-c1ccc(=O)c(OCc3ccccc3)cc1[C@@H](NC(C)=O)CC2 [Compound 3a]	6.39 ± 1.04 nM	2.04 ± 0.51 nM	2.19 ± 0.07 nM	2.27 ± 0.04 nM	2.83 ± 0.06 nM						~3	
COc1cc2c(c(OC)c1OC)-c1ccc(OCc3ccc(/C=C/c4ccc(CNC5=C6C[C@@H](C)C[C@H](OC)[C@H](O)[C@@H](C)/C=C(\C)[C@H](OC(N)=O)[C@@H](OC)/C=C\C=C(/C)C(=O)NC(=CC5=O)C6=O)cc4)cc3)c(=O)cc1[C@@H](NC(C)=O)CC2 [Compound 8d]	17.9 ± 1.04 nM	11.4 ± 0.15 nM	10.52 ± 0.05 nM	11 ± 0.44 nM	10.8 ± 0.74 nM							
C=Cc1ccc(COc2ccc3c(cc2=O)[C@@H](NC(C)=O)CCc2cc(OC)c(OC)c(OC)c2-3)cc1 [Compound 4j]	5.17 ± 0.28 nM	3.22 ± 0.36 nM	3.01 ± 0.04 nM	3.05 ± 0.01 nM	3.11 ± 0.03 nM							
COc1cc2c(c(OC)c1OC)-c1ccc(OC)c(=O)cc1[C@@H](NC(C)=O)CC2 [Compound 1, colchicine, reference compound]												2.37 ± 0.15 nM
